Measurements published in the supplement of paper PMC10883282.

Tests used:
[1] = test system: SYO-1; assay: relative viability vs DMSO control (72 h) (fraction); higher = more viable cells
In short: (§1)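 Sarcoma cell lines were seeded in 384-well plates at densities chosen for 80–90% confluence, then 24 h later given 2.5 µl of serially diluted compound drawn from source plates spanning 10 mM to 0.0002 mM. They were held 72 h at 37 °C, 5% CO2, with 0.1% DMSO vehicle and a 5 µM positive control included. Relative viability was read with ATPLite as percent growth and averaged over up to triplicate wells. Rescaling placed full at 1 and none at 0.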

[2] = test system: SW1353; assay: as above
In short: as §1

[3] = test system: KHOS-240S; assay: as above
In short: as §1

[4] = test system: MES-SA; assay: as above
In short: as §1

[5] = test system: RD; assay: as above
In short: as §1

[6] = test system: SYO-1; assay: standardised AUC of viability dose-response curve (72 h) (fraction (0-1)); higher = less growth inhibition (more resistant)
In short: (§2)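 Sarcoma cell lines in 384-well plates were treated in triplicate for 72 h with 2.5 µl of a compound dilution series, made in 1:3 steps from 10 mM to 0.0002 mM on the compound plate. ATPLite viability was scaled from 1 (full) to 0 (none) and fitted per drug and cell line with a four-parameter log-logistic model. The values are standardised areas under the dose-response curve in log-dose space, from a modified drexplorer computeAUC. On that scale, 1 means no response and 0 means full response.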

[7] = test system: SW1353; assay: as above
In short: as §2

[8] = test system: A204; assay: as above
In short: as §2

[9] = test system: SW982; assay: as above
In short: as §2

[10] = test system: G401; assay: as above
In short: as §2

[11] = test system: KHOS-240S; assay: as above
In short: as §2

[12] = test system: VA-ES-BJ; assay: as above
In short: as §2

[13] = test system: SK-LMS-1; assay: as above
In short: as §2

[14] = test system: KHOS-NP; assay: as above
In short: as §2

[15] = test system: SK-ES-1; assay: as above
In short: as §2

[16] = test system: RD-ES; assay: as above
In short: as §2

[17] = test system: SW684; assay: as above
In short: as §2

[18] = test system: MES-SA; assay: as above
In short: as §2

[19] = test system: SW872; assay: as above
In short: as §2

[20] = test system: HS729; assay: as above
In short: as §2

[21] = test system: RD; assay: as above
In short: as §2

[22] = test system: HT1080; assay: as above
In short: as §2

CN(C)CCCOc1ccc(-c2ccc3ncc4c(c3c2)n(C2CCOCC2)c(=O)n4C)cn1 [AZD-0156]
relative viability
Conditions	[1]	[2]	[3]	[4]	[5]
0.00017 µM	1	1.1	1.08	1.023	1.04
0.00051 µM	1.01	1.07	1.1	1.02	1.08
0.00152 µM	0.983	1.05	1.1	0.955	1.07
0.00457 µM	0.949	1.07	1.08	1.02	1.1
0.01372 µM	0.869	1.01	1.06	0.935	1.08
0.04115 µM	0.891	1.02	1.03	0.97	1.11
0.1235 µM	0.737	0.97	1.04	0.901	1.07
0.3704 µM	0.701	0.951	0.99	0.813	1.076
1.111 µM	0.534	0.883	0.865	0.716	0.949
3.333 µM	0.526	0.949	0.814	0.848	0.592
10 µM	0.259	0.865	0.587	0.654	0.536

Conditions	standardised AUC
[6]	0.777
[7]	0.917
[8]	0.854
[9]	0.752
[10]	0.963
[11]	0.914
[12]	0.753
[13]	0.858
[14]	0.975
[15]	0.748
[16]	0.785
[17]	0.891
[18]	0.887
[19]	0.749
[20]	0.883
[21]	0.921
[22]	0.991

COc1cc(Nc2ncc3c(n2)-c2ccc(Cl)cc2C(c2c(F)cccc2OC)=NC3)ccc1C(=O)O [Alisertib]
relative viability
Conditions	[1]	[2]	[3]	[4]	[5]
0.00017 µM	0.934	0.987	1.04	0.914	1.08
0.00051 µM	0.9195	0.972	1.04	0.932	1.1
0.00152 µM	0.903	0.969	1.03	0.9332	1.09
0.00457 µM	0.863	0.961	1.01	0.933	1.06
0.01372 µM	0.826	0.976	0.996	0.9174	1.07
0.04115 µM	0.783	0.921	0.884	0.621	1.04
0.1235 µM	0.618	0.886	0.807	0.363	0.863
0.3704 µM	0.459	0.908	0.758	0.353	0.679
1.111 µM	0.371	0.85	0.739	0.328	0.517
3.333 µM	0.355	0.817	0.681	0.325	0.517
10 µM	0.3041	0.685	0.622	0.316	0.474

O=C(c1ccc(F)c(F)c1Nc1ccc(I)cc1F)N1CC(O)([C@@H]2CCCCN2)C1 [Cobimetinib]
relative viability
Conditions	[1]	[2]	[3]	[4]	[5]
0.00017 µM	0.985	0.989	1.07	0.934	1.1
0.00051 µM	0.998	0.983	1.07	0.948	1.1
0.00152 µM	0.964	1	1.09	0.925	1.07
0.00457 µM	0.9431	0.979	1.05	0.899	1.02
0.01372 µM	0.928	0.899	1.03	0.896	0.88
0.04115 µM	0.907	0.838	0.936	0.824	0.766
0.1235 µM	0.929	0.778	0.79	0.786	0.636
0.3704 µM	0.84	0.704	0.709	0.752	0.539
1.111 µM	0.719	0.669	0.669	0.721	0.461
3.333 µM	0.566	0.617	0.549	0.6391	0.346
10 µM	-0.0086	0.0141	0.0497	0.0114	0.0053

Cn1cnc2c(F)c(Nc3ccc(Br)cc3Cl)c(C(=O)NOCCO)cc21 [Selumetinib]
relative viability
Conditions	[1]	[2]	[3]	[4]	[5]
0.00017 µM	0.937	0.917	1.03	0.871	1.06
0.00051 µM	0.931	0.894	1.03	0.89	1.04
0.00152 µM	0.9523	0.918	1.01	0.855	1.04
0.00457 µM	0.9263	0.892	0.999	0.862	0.977
0.01372 µM	0.8956	0.815	0.959	0.847	0.931
0.04115 µM	0.869	0.782	0.949	0.844	0.875
0.1235 µM	0.829	0.75	0.91	0.754	0.749
0.3704 µM	0.805	0.709	0.8785	0.779	0.703
1.111 µM	0.778	0.724	0.864	0.76	0.632
3.333 µM	0.733	0.674	0.782	0.741	0.593
10 µM	0.695	0.652	0.723	0.694	0.543
